Tests used:
Assay type in all cases: cell-based
JAK2 = test: Western blot assay, JAK2 protein degradation; conditions: MHH-CALL-4 cells, vehicle control = 100%
Description: (§1) Western blot assay: MHH-CALL-4 Cells were washed twice with ice-cold PBS and lysed in RIPA lysis buffer (Sigma) freshly supplemented with Halt™ Protease Inhibitor Cocktail (ThermoFisher) for 15 minutes on ice. The cell pellet was removed by centrifugation at 13,000 g at 4° C. for 15 minutes. Protein concentration was measured by BCA assay (Thermo Fisher Scientific). Proteins were denatured in NuPAGE LDS 4× sample buffer supplemented with reducing agents (Invitrogen). Typically, 10-20 μg of total protein was loaded per lane on a 4%-12% NUPAGE Bis-Tris gradient gel (Invitrogen) and analyzed by standard immunoblotting and imaged using Li—COR Odyssey CLx (LI-COR Biotechnology, Lincoln, NE). To access the protein degradation, the signal of target protein was normalized by the signal of ACBT and the signal of vehicle control was set as 100%. Primary antibodies used were: JAK1 (Cell Signaling #3332S), JAK2 (#3230S), JAK3 (#8827S), TYK2 (#9312S), GSPT1 (#14980S), CRBN (#71810S), IKZF1 (Santa Cruz Biotechnology, SC-398265) and ACBT (Santa Cruz Biotechnology, SC-47778).

MHH-CALL-4 cells = test: Cytotoxicity assay (resazurin, 72 hours); set-up: AUC: unit not given beside the values; conditions: for EC50: MHHCALL4, resazurin; for AUC: area under the dose-response curve
Description: Cytotoxicity assay: MHH-CALL-4 cells were maintained in RPMI1640 medium (Invitrogen) supplemented with 10% FBS (Hyclone), Penicillin/Streptomycin (100 units/mL) and Glutamine (100 μM). 2×10^5 cells were seeded in 100 μl medium/well in 96 well assay plates (Corning 3603). Assays were performed in triplicate; compounds to be screened were added to assay plates from DMSO stock solutions by pin transfer using 50SS pins (V&P Scientific). The assay plates incubated at 37° C. in 5% CO2 for 72 hours. Cells were then incubated for four hours with resazurin (Sigma) solution and read on a Synergy HT plate reader (Biotek, Winooski, VT). High-throughput assay data was analyzed using our in-house Robust Interpretation of Screening Experiments (RISE) application written in Pipeline Pilot (Biovia, v. 17.2.0) and the R program (R Core Team, 2013). All the AUC (area under the dose-response curve) per compound calculated from its dose response curve by RISE protocol. Selected data were plotted and analyzed by GraphPad Prism software v7 using non-linear regression curve fitting.

JAK3 = target: T1, JAK3 (Homo sapiens, UniProt P52333); test: Western blot assay, JAK3 protein degradation; conditions: MHHCALL4; 100 nM, 24 h; MHH-CALL-4 cells; vehicle control = 100%; read-out: Target Protein Degradation (% remaining at 100 nM, 24 h) JAK3
T1 construct: endogenous in cells; host or cells: MHH-CALL-4
T1 sequence (P52333 1-1124): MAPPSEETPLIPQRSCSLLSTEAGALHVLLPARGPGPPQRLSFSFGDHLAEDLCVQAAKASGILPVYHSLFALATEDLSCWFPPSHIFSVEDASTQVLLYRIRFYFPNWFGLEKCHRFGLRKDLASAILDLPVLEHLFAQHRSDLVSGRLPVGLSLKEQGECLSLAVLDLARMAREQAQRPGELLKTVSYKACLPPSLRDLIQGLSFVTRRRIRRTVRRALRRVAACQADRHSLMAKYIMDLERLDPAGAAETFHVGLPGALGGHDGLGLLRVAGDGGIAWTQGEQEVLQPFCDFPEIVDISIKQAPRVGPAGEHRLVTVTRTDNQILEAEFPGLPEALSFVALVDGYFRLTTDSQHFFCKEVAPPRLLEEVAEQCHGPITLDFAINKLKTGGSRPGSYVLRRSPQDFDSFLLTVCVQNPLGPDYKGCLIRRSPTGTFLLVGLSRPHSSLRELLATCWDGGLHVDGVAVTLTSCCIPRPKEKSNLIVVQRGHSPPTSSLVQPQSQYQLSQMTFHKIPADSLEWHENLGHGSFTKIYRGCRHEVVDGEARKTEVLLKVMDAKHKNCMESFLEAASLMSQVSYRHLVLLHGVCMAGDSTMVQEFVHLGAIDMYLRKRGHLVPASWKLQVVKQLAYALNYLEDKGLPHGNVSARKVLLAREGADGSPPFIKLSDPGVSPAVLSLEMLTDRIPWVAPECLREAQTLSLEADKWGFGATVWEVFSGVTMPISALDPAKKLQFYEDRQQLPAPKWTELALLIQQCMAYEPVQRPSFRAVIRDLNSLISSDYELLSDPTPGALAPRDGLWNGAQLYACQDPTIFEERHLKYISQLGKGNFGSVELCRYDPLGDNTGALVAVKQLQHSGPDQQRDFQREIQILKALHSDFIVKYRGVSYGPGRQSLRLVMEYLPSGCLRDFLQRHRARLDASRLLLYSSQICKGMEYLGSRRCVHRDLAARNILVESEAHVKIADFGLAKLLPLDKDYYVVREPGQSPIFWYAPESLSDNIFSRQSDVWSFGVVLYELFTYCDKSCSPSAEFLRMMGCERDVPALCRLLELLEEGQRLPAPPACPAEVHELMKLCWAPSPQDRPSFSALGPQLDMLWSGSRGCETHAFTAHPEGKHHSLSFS
Description: as §1

GSPT1 = target: T2, GSPT1 (Homo sapiens, UniProt P15170); test: Western blot assay, GSPT1 neosubstrate degradation; conditions: MHHCALL4; 100 nM, 24 h; MHH-CALL-4 cells; vehicle control = 100%
T2 construct: endogenous in cells; host or cells: MHH-CALL-4
Description: as §1

JAK1 = target: T3, JAK1 (Homo sapiens, UniProt P23458); test: Western blot assay, JAK1 protein degradation; conditions: MHH-CALL-4 cells, vehicle control = 100%
T3 construct: endogenous in cells; host or cells: MHH-CALL-4
Description: as §1

T2 sequence (P15170 whole entry): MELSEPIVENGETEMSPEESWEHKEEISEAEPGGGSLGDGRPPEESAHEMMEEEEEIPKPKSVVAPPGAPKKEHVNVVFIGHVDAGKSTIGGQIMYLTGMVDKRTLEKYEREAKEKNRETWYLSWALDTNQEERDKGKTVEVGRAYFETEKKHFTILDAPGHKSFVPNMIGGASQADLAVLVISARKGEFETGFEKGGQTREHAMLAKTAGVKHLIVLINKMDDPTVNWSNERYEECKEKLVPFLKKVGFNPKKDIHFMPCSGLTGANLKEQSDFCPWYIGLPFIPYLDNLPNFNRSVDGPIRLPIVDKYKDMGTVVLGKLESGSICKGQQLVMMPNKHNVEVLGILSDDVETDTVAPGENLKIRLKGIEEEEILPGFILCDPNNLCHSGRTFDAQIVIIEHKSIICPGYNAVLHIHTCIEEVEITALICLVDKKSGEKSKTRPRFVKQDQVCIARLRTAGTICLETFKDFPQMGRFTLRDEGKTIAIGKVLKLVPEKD
T3 sequence (P23458 whole entry): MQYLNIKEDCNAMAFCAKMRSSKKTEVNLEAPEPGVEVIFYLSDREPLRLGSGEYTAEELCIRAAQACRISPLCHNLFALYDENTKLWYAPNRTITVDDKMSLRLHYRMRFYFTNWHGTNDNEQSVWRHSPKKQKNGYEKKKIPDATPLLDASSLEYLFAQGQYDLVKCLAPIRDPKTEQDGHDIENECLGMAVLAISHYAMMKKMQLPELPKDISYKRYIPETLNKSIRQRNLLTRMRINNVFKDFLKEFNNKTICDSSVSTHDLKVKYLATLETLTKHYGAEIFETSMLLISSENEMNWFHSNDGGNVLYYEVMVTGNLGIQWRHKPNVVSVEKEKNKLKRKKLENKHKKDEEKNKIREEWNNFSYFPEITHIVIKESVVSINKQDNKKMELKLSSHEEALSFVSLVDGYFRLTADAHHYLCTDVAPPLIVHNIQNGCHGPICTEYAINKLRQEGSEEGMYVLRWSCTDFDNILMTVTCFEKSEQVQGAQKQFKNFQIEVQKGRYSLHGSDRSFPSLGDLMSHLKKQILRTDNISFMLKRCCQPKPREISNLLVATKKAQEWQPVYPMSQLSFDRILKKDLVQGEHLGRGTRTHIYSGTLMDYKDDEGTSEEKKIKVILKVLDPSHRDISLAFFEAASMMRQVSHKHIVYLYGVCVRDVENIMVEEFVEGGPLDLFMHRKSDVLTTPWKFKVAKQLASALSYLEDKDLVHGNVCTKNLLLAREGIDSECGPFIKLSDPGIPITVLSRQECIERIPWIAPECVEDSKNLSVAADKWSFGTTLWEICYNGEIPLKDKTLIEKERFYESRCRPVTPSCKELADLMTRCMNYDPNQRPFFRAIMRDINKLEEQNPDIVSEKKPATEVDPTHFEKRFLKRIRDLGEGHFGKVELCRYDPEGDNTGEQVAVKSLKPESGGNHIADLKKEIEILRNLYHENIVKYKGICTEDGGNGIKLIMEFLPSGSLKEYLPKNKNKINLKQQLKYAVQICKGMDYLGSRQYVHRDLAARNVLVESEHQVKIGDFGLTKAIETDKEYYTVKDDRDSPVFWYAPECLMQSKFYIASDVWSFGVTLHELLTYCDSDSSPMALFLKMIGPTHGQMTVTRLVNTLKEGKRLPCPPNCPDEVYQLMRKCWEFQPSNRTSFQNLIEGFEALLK

Row | remaining activity at 0.1 µM (JAK3) | remaining activity at 0.1 µM (GSPT1) | Target Protein Degradation (% remaining at 100 nM, 24 h) JAK1 (JAK1) | Structure (SMILES) | Target Protein Degradation (% remaining at 100 nM, 24 h) JAK2 (JAK2) | EC50 (MHH-CALL-4 cells) | AUC (MHH-CALL-4 cells)
1 | 109% | 155% | 145 % remaining | N#CC[C@@H](C1CCCC1)n1cc(-c2nc(Nc3ccc(C(=O)NCCCN4CCN(c5ccc6c(c5)C(=O)N(C5CCC(=O)NC5=O)C6=O)CC4)cc3)nc3[nH]ccc23)cn1 (stereo partly drawn) [Compound 23] | 67 % remaining | 30.9 nM | 79
2 | 92% | 118% | 107 % remaining | CCS(=O)(=O)C1CC(CC#N)(n2cc(-c3nc(Nc4ccc(C(=O)N5CCC(c6ccc7c(c6)C(=O)N(C6CCC(=O)NC6=O)C7=O)CC5)cc4)nc4[nH]ccc34)cn2)C1 (stereo not drawn) [Compound 27] | 68 % remaining | 289 nM | 143
3 | 97% | 127% | 112 % remaining | CCS(=O)(=O)N1CC(CC#N)(n2cc(-c3nc(Nc4ccc(C(=O)NCCCN5CCC(c6ccc7c(c6)CN(C6CCC(=O)NC6=O)C7=O)CC5)cc4)nc4[nH]ccc34)cn2)C1 (stereo not drawn) [Compound 28] | 83 % remaining | 16.8 nM | 223.00
4 | 62% | 51% | 64 % remaining | CCS(=O)(=O)C1CC(CC#N)(n2cc(-c3nc(Nc4ccc(C(=O)NC5CCN(c6ccc7c(c6)C(=O)N(C6CCC(=O)NC6=O)C7=O)CC5)cc4)nc4[nH]ccc34)cn2)C1 (stereo not drawn) [Compound 29] | 14 % remaining | 4.3 nM | 262
5 | 77% | 140% | 105 % remaining | CCS(=O)(=O)C1CC(CC#N)(n2cc(-c3nc(Nc4ccc(C(=O)NC5CCN(c6cccc7c6C(=O)N(C6CCC(=O)NC6=O)C7=O)CC5)cc4)nc4[nH]ccc34)cn2)C1 (stereo not drawn) [Compound 30] | 88 % remaining | 0.3 nM | 215.00
6 | 54% | 61% | 58 % remaining | CCS(=O)(=O)N1CC(CC#N)(n2cc(-c3nc(Nc4ccc(C(=O)NCC5CCN(c6ccc7c(c6)C(=O)N(C6CCC(=O)NC6=O)C7=O)CC5)cc4)nc4[nH]ccc34)cn2)C1 (stereo not drawn) [Compound 31] | 18 % remaining | 2.1 nM | 260
7 | 56% | 46% | 69 % remaining | CCS(=O)(=O)N1CC(CC#N)(n2cc(-c3nc(Nc4ccc(C(=O)NCCC5CCN(c6ccc7c(c6)C(=O)N(C6CCC(=O)NC6=O)C7=O)CC5)cc4)nc4[nH]ccc34)cn2)C1 (stereo not drawn) [Compound 32] | 21 % remaining | 1.3 nM | 251
8 | 71% | 89% | 83 % remaining | CCS(=O)(=O)N1CC(CC#N)(n2cc(-c3nc(Nc4ccc(C(=O)NCCCNC(=O)COc5cccc(C6CCC(=O)NC6=O)c5)cc4)nc4[nH]ccc34)cn2)C1 (stereo not drawn) [Compound 33] | 74 % remaining | 0.7 nM | 185
9 | 69% | 74% | 90 % remaining | CCS(=O)(=O)N1CC(CC#N)(n2cc(-c3nc(Nc4ccc(C(=O)NCCCCCCCNc5cccc(C6CCC(=O)NC6=O)c5)cc4)nc4[nH]ccc34)cn2)C1 (stereo not drawn) [Compound 34] | 71 % remaining | 31 nM | 210
10 | 63% | 94% | 118 % remaining | N#CC[C@H](C1CCCC1)n1cc(-c2nc(Nc3ccc(C(=O)NCCCCOc4ccc(C5CCC(=O)NC5=O)cc4)cc3)nc3[nH]ccc23)cn1 (stereo partly drawn) [Compound 36] | 32 % remaining | 5.4 nM | 129
11 | 53% | 84% | 126 % remaining | CCCn1cc(-c2nc(Nc3ccc(C(=O)NCCN4CCN(c5ccc6c(c5)C(=O)N(C5CCC(=O)NC5=O)C6=O)CC4)cc3)nc3[nH]ccc23)cn1 (stereo not drawn) [Compound 39, N-(2-(4-(2-(2,6-dioxopiperidin-3-yl)-1,3-dioxoisoindolin-5-yl)piperazin-1-yl)ethyl)-4-((4-(1-propyl-1H-pyrazol-4-yl)-7H-pyrrolo[2,3-d]pyrimidin-2-yl)amino)benzamide] | 61 % remaining | 33.1 nM | 221
12 | 56% | 88% | 114 % remaining | CCS(=O)(=O)N1CC(CC#N)(n2cc(-c3nc(Nc4ccc(C(=O)NCCN5CCN(c6cccc(C7CCC(=O)NC7=O)c6)CC5)cc4)nc4[nH]ccc34)cn2)C1 (stereo not drawn) [Compound 40, 4-((4-(1-(3-(cyanomethyl)-1-(ethylsulfonyl)azetidin-3-yl)-1H-pyrazol-4-yl)-7H-pyrrolo[2,3-d]pyrimidin-2-yl)amino)-N-(2-(4-(3-(2,6-dioxopiperidin-3-yl)phenyl)piperazin-1-yl)ethyl)benzamide] | 36 % remaining | 1.9 nM | 139
13 | 71% | 76% | 128 % remaining | CCS(=O)(=O)N1CC(CC#N)(n2cc(-c3nc(Nc4ccc(C(=O)NCCCN5CCN(c6cccc(C7CCC(=O)NC7=O)c6)CC5)cc4)nc4[nH]ccc34)cn2)C1 (stereo not drawn) [Compound 42, 4-((4-(1-(3-(cyanomethyl)-1-(ethylsulfonyl)azetidin-3-yl)-1H-pyrazol-4-yl)-7H-pyrrolo[2,3-d]pyrimidin-2-yl)amino)-N-(3-(4-(3-(2,6-dioxopiperidin-3-yl)phenyl)piperazin-1-yl)propyl)benzamide] | 48 % remaining | 836 nM | 139

— patent US20240124465A1, “MOLECULES AND METHODS RELATED TO TREATMENT OF DISORDERS ASSOCIATED WITH JAK-2 SIGNALING DYSFUNCTION” (ST. JUDE CHILDREN'S RESEARCH HOSPITAL, priority 2020, published 2024)
